Results reported in article PMC10808720 (Frontiers in Pharmacology, 2024).

Legend:
[1] = tested on: wild-type HAdV5; experiment: HAdV/tubulin colocalization (confocal microscopy); type: cell-based, human adenovirus (HAdV5); conditions: 0.05 μM; 90 min after synchronized infection; A549
Description: The coverslips were previously washed with acetone, distilled water and absolute ethanol sequentially, and washed with 1x PBS, and treated with poly-L-lysine (Merck, Darmstadt, Germany) for 1 h, and washed again twice with 1x PBS. […] The infection was synchronized for 1 h on ice, excess virus was removed, and the cells were incubated for 90 min at 37°C and 5% CO2. Finally, the cells were fixed with methanol/acetone 50% for 10 min at −20°C whereupon nonspecific unions were blocked with PBS/BSA 10% for 1 h at room temperature. The cells were then incubated with hexon protein mouse monoclonal IgG (DSHB, Iowa City, USA) and anti-gamma-tubulin antibody marked by Alexa Fluor® 647 (Abcam, Cambridge, UK) for 60 min at room temperature. After rinsing with 1x PBS, the cells were incubated with Alexa Fluor 488 goat anti-mouse IgG (Thermo Fisher Scientific, MA, USA) for 20 min at room temperature, and DAPI (Merck) was added for 5 min to stain the nucleus. Finally, coverslips were fixed on the slides with a mounting medium prepared from one part of 10x PBS and 9 parts of glycerol and stored in the dark overnight at 4°C. […] The Z-series was analyzed by first determining the region of interest and then measuring the fluorescence signal using ImageJ.

[2] = tested on: wild-type HAdV5; experiment: Nuclear-associated HAdV genomes (qPCR after nuclear isolation); type: cell-based, human adenovirus (HAdV5); conditions: 10-fold IC50; 45 min after synchronized infection; A549
Description: Nuclear delivery of HAdV genomes was assessed using qPCR following nuclear isolation from infected cells. Briefly, 1 × 10^6 A549 cells in 6-well plates were infected either with wild-type HAdV5 at an MOI of 2,000 vp/cell in the presence of a 10-fold IC50 concentration of the compounds obtained in the plaque assay or the same volume of DMSO as the positive control. Forty-five minutes after infection, the A549 cells were trypsinized, collected, and washed twice with PBS. The cell pellet was resuspended in 500 μL of 1×hypotonic buffer (20 mM Tris-HCl pH 7.4, 10 mM NaCl, 3 mM MgCl2) and incubated for 15 min at 4°C. Then, 25 μL of NP-40 was added and the samples were vortexed. The homogenates were centrifuged for 10 min at 835 g at 4°C. Following the removal of the cytoplasmic fraction (supernatant), HAdV DNA was isolated from the nuclear (pellet) and cytoplasmic fractions using the E.Z.N.A.® Tissue DNA Kit (Omega Bio-tek, Norcross, GA).

[3] = tested on: HAdV5; experiment: HAdV-mediated endosome disruption (α-sarcin co-delivery, HPG incorporation); type: cell-based, human adenovirus (HAdV5)
Description: A549 cells (2 × 10^4 cells/well) were incubated in DMEM without cysteine or methionine supplemented with 10% dialyzed FBS [DMEM(−)] in black 96-well plates for 1 h prior to infection. Three-fold serial dilutions (0.45 ng–1,000 ng) of HAdV5, or AdV2ts1 were preincubated with cells in the presence of 10-fold IC50 concentration of the compounds obtained in the plaque assay or the same volume of DMSO for positive control for 1 h. The medium was then removed and replaced with 50 μL DMEM(−) containing 0.1 mg/ml α-sarcin (Santa Cruz Biotechnology, Dallas, Texas, USA) and drug mixtures. After 1 h at 37°C, the Click-iT L-homopropargylglycine (HPG) Alexa Fluor 488 Protein Synthesis Assay Kits (Invitrogen) was used to analyse protein synthesis according to the manufacturer’s instructions. The incorporation of the amino acid analogue of methionine HPG containing Alexa Fluor 488 azide was measured using a Typhoon 9410 imager (GE Healthcare Life Sciences) and calculated by subtracting the background level of the control well containing HPG and α-sarcin but not the virus (100% incorporation).

[4] = tested on: HAdV5-GFP; experiment: microbe, parasite or virus in culture; type: cell-based, human adenovirus (HAdV5); conditions: Human adenovirus sp.
Description: Compounds were tested using low MOI infections (0.06 vp/cell), initially at concentrations of 10 μM and subsequently in a dose-response assay ranging from 10 μM to 2.44 nM in a plaque assay. Briefly, 293β5 cells were seeded in 6-well plates at a density of 1 × 10^6 cells per well in duplicate for each condition. When the cells reached 80%–90% confluency, they were infected with HAdV5-GFP and rocked for 2 h at 37°C. After the incubation, the inoculum was removed and the cells were washed once with PBS. Cells were then carefully overlaid with equal parts of 4 mL/well 1.6% ([…]) Difco Agar Noble (Becton, Dickinson & Co., Sparks, MD, USA) and 2× Eagle’s Minimum Essential Medium (EMEM; BioWhittaker) supplemented with 2×penicillin/streptomycin, 2× L-glutamine, and 10% FBS. The mixture also contained the compounds in the concentration ranges described above. Following incubation for 7 days at 37°C, plates were scanned with a Typhoon FLA 9000 imager (GE Healthcare Life Sciences) and the formed plaques were quantified with ImageJ ([Schneider et al., 2012]). Plaque counting was performed to calculate the 50% inhibitory concentration (IC50) of each compound using the statistical software GraphPad Prism 6.

[5] = tested on: HAdV-RFP; experiment: Direct interaction of rotenone with HAdV particles (pre-incubated virions, RFP expression); type: cell-based, human adenovirus (HAdV5); conditions: virions pre-incubated with 0.1 µM; 48 h; A549
Description: These treated virions were then added to A549 cells and incubated for 1 h on ice, to allow the HAdV particles to attach to the cells.

[6] = animals; ref Ray et al., 1991; Vats, 2018; Vats and Mehre, 2020; cited from earlier work
[7] = tested on: HCMV; experiment: Impact on HCMV replication (qPCR of HCMV DNA in HFF); type: cell-based, human cytomegalovirus; conditions: 2-fold IC50 (HAdV plaque assay), 72 h
Description: To test the anti-HCMV activity of these rotenolone-related compounds, human foreskin fibroblasts (HFF; ATCC, Manassas, VA) were seeded in a 24-well plate (8.3 × 10^4 cells/well), infected with HCMV (MOI 0.05 vp/cell), and incubated in complete DMEM in the presence of either 2-fold IC50 concentration of each compound obtained in the plaque assay against HAdV or the same volume of DMSO (positive control) in duplicate. The cells were incubated for 72 h at 37°C and 5% CO2 and HCMV DNA was purified from the cell lysate using E.Z.N.A Tissue DNA Kit (Omega Biotek, Norcross, GA, USA) following the manufacturer’s instructions. The qPCR primers, conditions, and protocols were the same as previously reported ([Mazzotta et al., 2020b]).

## C=C(C)[C@H]1Cc2c(ccc3c2O[C@@H]2COc4cc(OC)c(OC)cc4[C@@H]2C3=O)O1 [Rotenone, (2R,6aS,12aS)-8,9-dimethoxy-2-(prop-1-en-2-yl)-1,2,12,12a-tetrahydrochromeno[3,4-b]furo[2,3-h]chromen-6-(6aH)-one]
[1]
  colocalization of HAdV particles with the tubulin: lower level of colocalization
[2]
  accessibility of HAdV genomes to the nucleus: significantly blocked
[3]; compared with a control without α-sarcin, 10-fold IC50, independent of virus concentration
  HPG incorporation: approximately 30%
[3]; α-sarcin assay
  attenuation of HAdV-mediated endosomolysis: did not attenuate
[4]; 168 h, read-out: IC50 plaque assay
  IC50: 3.9 ± 0.1 nM
[4]; read-out: inhibition of plaque formation
  inhibition at 0.004 µM: 67.8%
[5]
  level of RFP inhibition, cells incubated with vs without rotenone after attachment: no differences
[6]
  estimated lethal dose: 300 to 500 mg/kg
[7]
  inhibition of HCMV replication: 92.1%
